From the NIST ThermoML archive (doi:10.1021/je7006549)
± gives the expanded uncertainty stated by the source.

Assay: mn = molality of the nth substance listed, in mol/kg
Conditions: 101 kPa, Liquid

CC1=CC(=O)c2ccccc2C1=O [2-methyl-1,4-naphthalenedione] + Cc1ccc(C)cc1
Conditions | mass density [kg/m3] | viscosity [mPa·s]
303.15 K, m1 = 0.0454 | 854 ± 0.7 | 0.5859 ± 0.0094
303.15 K, m1 = 0.0902 | 856 ± 0.7 | 0.5904 ± 0.0094
303.15 K, m1 = 0.1361 | 858.1 ± 0.7 | 0.5958 ± 0.0095
303.15 K, m1 = 0.1815 | 860.1 ± 0.7 | 0.6048 ± 0.0096
303.15 K, m1 = 0.2267 | 862.1 ± 0.7 | 0.6092 ± 0.0096
303.15 K, m1 = 0.2724 | 864.1 ± 0.7 | 0.6161 ± 0.0096
308.15 K, m1 = 0.0454 | 849.7 ± 0.7 | 0.5528 ± 0.0092
308.15 K, m1 = 0.0902 | 851.7 ± 0.7 | 0.5581 ± 0.0092
308.15 K, m1 = 0.1361 | 853.8 ± 0.7 | 0.5631 ± 0.0092
308.15 K, m1 = 0.1815 | 855.8 ± 0.7 | 0.5716 ± 0.0093
308.15 K, m1 = 0.2267 | 857.8 ± 0.7 | 0.5748 ± 0.0093
308.15 K, m1 = 0.2724 | 859.8 ± 0.7 | 0.582 ± 0.0094
313.15 K, m1 = 0.0454 | 845.2 ± 0.8 | 0.5222 ± 0.0089
313.15 K, m1 = 0.0902 | 847.2 ± 0.8 | 0.5274 ± 0.009
313.15 K, m1 = 0.1361 | 849.3 ± 0.8 | 0.5349 ± 0.009
313.15 K, m1 = 0.1815 | 851.3 ± 0.8 | 0.5396 ± 0.0091
313.15 K, m1 = 0.2267 | 853.3 ± 0.8 | 0.543 ± 0.0091
313.15 K, m1 = 0.2724 | 855.3 ± 0.8 | 0.5477 ± 0.0091
318.15 K, m1 = 0.0454 | 840.7 ± 0.8 | 0.4999 ± 0.0088
318.15 K, m1 = 0.0902 | 842.7 ± 0.8 | 0.5047 ± 0.0088
318.15 K, m1 = 0.1361 | 844.8 ± 0.8 | 0.5097 ± 0.0088
318.15 K, m1 = 0.1815 | 846.8 ± 0.8 | 0.5152 ± 0.0089
318.15 K, m1 = 0.2267 | 848.8 ± 0.8 | 0.5183 ± 0.0089
318.15 K, m1 = 0.2724 | 850.8 ± 0.8 | 0.5242 ± 0.0089
323.15 K, m1 = 0.0454 | 836.5 ± 0.8 | 0.4686 ± 0.0085
323.15 K, m1 = 0.0902 | 838.5 ± 0.8 | 0.4737 ± 0.0086
323.15 K, m1 = 0.1361 | 840.6 ± 0.8 | 0.477 ± 0.0086
323.15 K, m1 = 0.1815 | 842.6 ± 0.8 | 0.4824 ± 0.0086
323.15 K, m1 = 0.2267 | 844.6 ± 0.8 | 0.4864 ± 0.0087
323.15 K, m1 = 0.2724 | 846.6 ± 0.8 | 0.4907 ± 0.0087
328.15 K, m1 = 0.0454 | 831.9 ± 0.8 | 0.4467 ± 0.0084
328.15 K, m1 = 0.0902 | 833.9 ± 0.8 | 0.4509 ± 0.0084
328.15 K, m1 = 0.1361 | 836 ± 0.8 | 0.456 ± 0.0085
328.15 K, m1 = 0.1815 | 838 ± 0.8 | 0.4615 ± 0.0085
328.15 K, m1 = 0.2267 | 840 ± 0.8 | 0.4633 ± 0.0085
328.15 K, m1 = 0.2724 | 842 ± 0.8 | 0.4698 ± 0.0086
333.15 K, m1 = 0.0454 | 827.6 ± 0.9 | 0.4225 ± 0.0082
333.15 K, m1 = 0.0902 | 829.6 ± 0.9 | 0.4258 ± 0.0082
333.15 K, m1 = 0.1361 | 831.7 ± 0.9 | 0.4309 ± 0.0083
333.15 K, m1 = 0.1815 | 833.7 ± 0.9 | 0.4364 ± 0.0083
333.15 K, m1 = 0.2267 | 835.7 ± 0.9 | 0.4384 ± 0.0083
333.15 K, m1 = 0.2724 | 837.7 ± 0.9 | 0.4429 ± 0.0084
